In patent US11485751B2, “Apramycin derivatives” (WAYNE STATE UNIVERSITY, priority 2017, dated 2022):
Values after ≈ are worked out from the molar mass of the structure shown. Where two headings read alike, the source gives them in different places.

What was measured:
[1] = test system: Engineered E. coli pH430 WT; experiment: Activity, engineered E. coli pH430 WT; format: cell-based; details: wild type
Procedure, shortened: (§1)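 Strains are tested by broth microdilution under the CLSI M07-A10 procedure. The lowest inhibitory concentration is recorded as the MIC.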

[2] = test system: Engineered E. coli AG103 armA; experiment: Activity against G1405-methylated 16S-rRNA, E. coli AG103 armA; format: cell-based
Procedure, shortened: as §1

[3] = test system: A baum. AG227 APH(3′)-I armA; experiment: Activity against G1405-methylated 16S-rRNA, clinical isolate AG227; format: cell-based
Procedure, shortened: as §1

[4] = test system: AG290, Enterobacter cloacae; experiment: MIC reference strain AG290; format: cell-based; details: Enterobacter cloacae; reference strain; read-out: MIC AG290 E. cloacae
Procedure, shortened: (§2)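 Compounds serially diluted in broth, bacteria added, growth inhibition scored; the lowest inhibitory concentration is taken as MIC, following CLSI procedures.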

[5] = test system: Engineered E. coli pH424 armA; experiment: Activity against G1405-methylated 16S-rRNA, E. coli pH424 armA; format: cell-based
Procedure, shortened: as §1

[6] = test system: human mitochondrial ribosomes; experiment: in-vitro translation assay, human mitochondrial (human chimeric) ribosomes; format: biochemical
Procedure, shortened: (§3)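 Reported values are IC50s for inhibition of in-vitro translation. For the mitochondrial target, human chimeric ribosomes were used. For the cytosolic target, rabbit reticulocyte ribosomes were used.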

[7] = test system: AG220, Pseudomonas aeruginosa ATCC27853; experiment: MIC reference strain AG220; format: cell-based; details: Pseudomonas aeruginosa, ATCC27853, reference strain ATCC27853; read-out: MIC AG220 P. aeruginosa
Procedure, shortened: as §2

[8] = test system: clinical isolates carrying APH(3′)-III; experiment: MIC broth microdilution, APH(3′)-III; format: cell-based; details: IMM Univ. Zurich
Description: (§4) Minimal inhibitory concentrations (MIC) have been determined by broth microdilution assays (CLSI. Methods for Dilution Antimicrobial Susceptibility Tests for Bacteria That Grow Aerobically; Approved Standard—Tenth Edition. CLSI document M07-A10. Wayne, Pa.: Clinical and Laboratory Standards Institute; 2015.).
Minimal inhibitory concentrations (MICs, […]) against clinical isolates from Institute of Medical Microbiology, Univ. Zurich, and the IC50 values for bacterial, human mitochondrial and human cytosolic ribosomes are indicated.

[9] = test system: K. pneum. AG269 AAC(3)-II AAC(6′)-I rmtB; experiment: Activity against G1405-methylated 16S-rRNA, clinical isolate AG269; format: cell-based
Procedure, shortened: as §1

AG038 MRSA = experiment: Antibacterial activity, clinical isolate AG038; format: cell-based; parameters: unit not given here
Procedure, shortened: (§5)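 Compounds are serially diluted in liquid medium in microplates, bacteria are added, and the lowest concentration preventing growth is recorded as the MIC (CLSI procedure).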

[10] = test system: AG215, Klebsiella pneumonia; experiment: MIC reference strain AG215; format: cell-based; details: Klebsiella pneumoniae, reference strain; read-out: MIC AG215 K. pneumonia
Procedure, shortened: as §2

[11] = test system: E. coli AG153 AAC(3)-II APH(3′)-II rmtB; experiment: Activity against G1405-methylated 16S-rRNA, clinical isolate AG153; format: cell-based
Procedure, shortened: as §1

AG003 E. coli AAC(3)-II = experiment: Antibacterial activity, clinical isolate AG003; format: cell-based
Procedure, shortened: as §5

[12] = test system: Engineered E. coli pH427 rmtF; experiment: Activity against G1405-methylated 16S-rRNA, E. coli pH427 rmtF; format: cell-based
Procedure, shortened: as §1

AG031 P. aer. APH(3′)-II = experiment: Antibacterial activity, clinical isolate AG031; format: cell-based; parameters: unit not given here
Procedure, shortened: as §5

bacterial ribosomes = experiment: in-vitro translation assay, bacterial ribosomes; format: biochemical
Procedure, shortened: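 Cell-free translation; IC50 read-out. Mito = human chimeric ribosomes; cytosolic = rabbit reticulocyte ribosomes; bacterial ribosomes run in the same assay format.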

[13] = test system: human cytosolic ribosomes; experiment: in-vitro translation assay, human cytosolic ribosomes; format: biochemical
Procedure, shortened: as §3

[14] = test system: clinical isolates carrying AAC(3)-IV; experiment: MIC broth microdilution, AAC(3)-IV; format: cell-based; details: for MIC: clinical isolates, IMM Univ. Zurich, AAC(3)-IV, read-out: MIC AAC(3)-IV
Procedure, shortened: (§6)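 Clinical isolates supplied by the Zurich Institute of Medical Microbiology were tested for MIC (μg/ml) using CLSI M07-A10 broth microdilution.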

[15] = test system: clinical isolates carrying APH(3′)-I; experiment: MIC broth microdilution, APH(3′)-I; format: cell-based; details: IMM Univ. Zurich
AG163 E. coli APH(3′)-I = experiment: Antibacterial activity, clinical isolate AG163; format: cell-based
Procedure, shortened: as §5

[16] = test system: clinical isolates carrying APH(3′)-VI; experiment: MIC broth microdilution, APH(3′)-VI; format: cell-based; details: IMM Univ. Zurich
[17] = test system: Engineered E. coli pH425 rmtB; experiment: Activity against G1405-methylated 16S-rRNA, E. coli pH425 rmtB; format: cell-based
Procedure, shortened: as §1

eukaryotic ribosomes = experiment: in-vitro translation assays, bacterial versus eukaryotic ribosomes; format: biochemical
Description: IC50 values for bacterial, human chimeric, and rabbit reticulocyte ribosomes have been determined by in-vitro translation assays as described previously (Proc. Nat. Ac. Sci USA 2012, 109(27):10984-10989).

[18] = test system: Engineered E. coli pH426 rmtC; experiment: Activity against G1405-methylated 16S-rRNA, E. coli pH426 rmtC; format: cell-based
Procedure, shortened: as §1

AG001 E. coli WT = experiment: Antibacterial activity, clinical isolate AG001; format: cell-based; parameters: unit not given here
Procedure, shortened: as §5

AG173 E. coli AAC(3)-IV = experiment: Antibacterial activity, clinical isolate AG173; format: cell-based
Procedure, shortened: as §5

[19] = test system: AG042 MRSA AAC(6′)-I ANT(4′)-I APH(2′); experiment: Antibacterial activity, clinical isolate AG042; format: cell-based; parameters: unit not given here
Procedure, shortened: as §5

[20] = test system: AG033 P. aer. APH(3′)-II AAC(6′)-I; experiment: Antibacterial activity, clinical isolate AG033; format: cell-based; parameters: unit not given here
Procedure, shortened: as §5

[21] = test system: APH(3′, 5″) resistance determinant; experiment: Susceptibility to the APH(3′, 5″) resistance determinant; format: cell-based
Description: as §4
The introduction of a formamido group results in compounds that display increased selectivity for the bacterial ribosome over the mitochondrial (wild type and A1555G mutant) ribosomes, predictive of reduced ototoxicity.

ATCC19977 M. abcessus = experiment: MIC reference strain ATCC19977; format: cell-based; details: read-out: MIC ATCC19977 M. abcessus
Procedure, shortened: as §5

AG032 P. aer. APH(3′)-II = experiment: Antibacterial activity, clinical isolate AG032; format: cell-based; parameters: unit not given here
Procedure, shortened: as §5

[22] = test system: Enterob. AG302 AAC(3)-II AAC(6′)-I rmtC; experiment: Activity against G1405-methylated 16S-rRNA, clinical isolate AG302; format: cell-based
Procedure, shortened: as §1

AG055 E. coli WT = experiment: Antibacterial activity, clinical isolate AG055; format: cell-based; parameters: unit not given here
Procedure, shortened: as §5

[23] = test system: AG225, Acinetobacter baumannii pittii; experiment: MIC reference strain AG225; format: cell-based; details: Acinetobacter baumannii, reference strain; read-out: MIC AG225 A. baumannii
Procedure, shortened: as §2

[24] = test system: AG039 MRSA AAC(6′)-I ANT(4′)-I; experiment: Antibacterial activity, clinical isolate AG039; format: cell-based
Procedure, shortened: as §5

[25] = test system: AG212, Escherichia coli ATCC25922; experiment: MIC reference strain AG212; format: cell-based; details: Escherichia coli; reference strain ATCC25922; read-out: MIC AG212 E. coli
Procedure, shortened: as §2

[26] = test system: clinical isolates carrying APH(3′)-II; experiment: MIC broth microdilution, APH(3′)-II; format: cell-based; details: clinical isolates, IMM Univ. Zurich; APH(3′)-II; read-out: MIC APH(3′)-II
WT clinical isolates = experiment: MIC broth microdilution, WT; format: cell-based; details: read-out: MIC WT, clinical isolates, IMM Univ. Zurich; wild type
Procedure, shortened: as §6

isolates carrying apmA = experiment: MIC broth microdilution, apmA; format: cell-based
Procedure, shortened: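 Clinical isolates carrying apmA, from the University of Zurich Institute of Medical Microbiology, were tested by broth microdilution following CLSI M07-A10; values are MICs in μg/ml.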

N. gonorrhoeae = experiment: Disk diffusion N. gonorrhoeae; format: cell-based

Compound	Activity E. coli pH430 WT [1]	MIC [4]	Activity E. coli pH424 armA [5]	IC50 [6]	MIC [7]	Antibacterial activity AG038 MRSA (AG038 MRSA)	MIC [10]	Antibacterial activity AG003 E. coli AAC(3)-II (AG003 E. coli AAC(3)-II)	Activity E. coli pH427 rmtF [12]	Antibacterial activity AG031 P. aer. APH(3′)-II (AG031 P. aer. APH(3′)-II)	IC50 (bacterial ribosomes)	IC50 [13]	MIC [14]	Activity E. coli pH425 rmtB [17]	Activity E. coli pH426 rmtC [18]	Antibacterial activity AG001 E. coli WT (AG001 E. coli WT)	Antibacterial activity AG173 E. coli AAC(3)-IV (AG173 E. coli AAC(3)-IV)	Antibacterial activity AG042 MRSA AAC(6′)-I ANT(4′)-I APH(2′) [19]	Antibacterial activity AG033 P. aer. APH(3′)-II AAC(6′)-I [20]	Antibacterial activity AG032 P. aer. APH(3′)-II (AG032 P. aer. APH(3′)-II)	also measured
CNC1C(OC2OC(CO)C(N)C(O)C2O)OC2CC(N)C(OC3C(N)CC(N)C(O)C3OC3OC(CO)C(OCCN)C3O)OC2C1O [DC124, 5-O-β-(3′″-O-(2-Aminoethyl)-D-ribofuranosyl) apramycin]	2	1 to 2 µg/mL	1	57 µM	16 to 32 µg/mL	8-16	1 to 2 µg/mL	4-8	2	32-64	60 nM	181 µM	> 32 µg/mL	4	2	8	4	8	128	32-64	Activity E. coli AG103 armA [2]: 0.5; Activity A baum. AG227 APH(3′)-I armA [3]: 16; MIC [8]: 0.5 µg/mL (≈ 0.7 µM); Activity K. pneum. AG269 AAC(3)-II AAC(6′)-I rmtB [9]: 2; Activity E. coli AG153 AAC(3)-II APH(3′)-II rmtB [11]: 4; activity against the IMM clinical isolates carrying the gene for AAC(3)-IV [14]: excellent antiribosomal and antibacterial activity; MIC [15]: 64 µg/mL (≈ 89.5 µM); Antibacterial activity AG163 E. coli APH(3′)-I (AG163 E. coli APH(3′)-I): 4-8; MIC [16]: 4 µg/mL (≈ 5.6 µM); activity against eukaryotic ribosomes (eukaryotic ribosomes): only low activity; selectivity at the target level (eukaryotic ribosomes; bacterial versus eukaryotic ribosomes): excellent selectivity; susceptibility to the APH(3′, 5″) resistance determinant [21]: susceptible; MIC (ATCC19977 M. abcessus): 8 µg/mL (≈ 11.2 µM); Activity Enterob. AG302 AAC(3)-II AAC(6′)-I rmtC [22]: 4; Antibacterial activity AG055 E. coli WT (AG055 E. coli WT): 8; MIC [23]: 8 µg/mL; Antibacterial activity AG039 MRSA AAC(6′)-I ANT(4′)-I [24]: 8; MIC [25]: 2 µg/mL; MIC [26]: 2 µg/mL (≈ 2.8 µM)
CNC1C(OC2OC(CO)C(N)C(O)C2O)OC2CC(N)C(OC3C(N)CC(N)C(O)C3O)OC2C1O (stereo not drawn) [DC161, 5-Epi-apramycin]	2	2 µg/mL	2	20 µM	2 µg/mL	4	1 µg/mL	4-8	2	4	50 nM	17 µM	> 32 µg/mL	2	2	4	64	2-4	8	4	MIC (WT clinical isolates): 2 µg/mL (≈ 3.71 µM); circumvention of the resistance mechanism apmA (isolates carrying apmA): circumvent the resistance mechanism apmA; MIC (isolates carrying apmA; apmA resistance gene): 2 µg/mL (≈ 3.71 µM); MIC (ATCC19977 M. abcessus; reference strain): 0.5 µg/mL (≈ 0.927 µM); Antibacterial activity AG055 E. coli WT (AG055 E. coli WT): 4; MIC [23]: 2 µg/mL; Antibacterial activity AG039 MRSA AAC(6′)-I ANT(4′)-I [24]: 4; Disk diffusion 25 nmol N. gonorrhoeae (N. gonorrhoeae): 10 mm; MIC [25]: 2 µg/mL
